Legend:
diatoms [1] = test: Mixed algae/diatom culture with urea cycle pathway inhibitor, cellometer cell count: diatoms; assay type: cell-based; settings: 1 mM inhibitor
Method: (§1) A control was established containing equal quantities of algae and diatoms. Similarly a test was also established containing the same equal quantities of algae and diatoms along with 1 mM of urea cycle pathway inhibitor namely, Saccharopine.
(§2) At Day 1 using a cellometer technique the cell counts of algae and diatoms in both the control and the test was carried out.
(§3) Both the control and the test were then incubated for 4 days in similar optimum conditions with periodic checking for cell counts in both the control and the test vessels.
(§4) The diatom and the algal cell count was then determined using the cellometer technique at the end of 4th day.

algae [2] = test: Mixed algae/diatom culture with urea cycle pathway inhibitor, cellometer cell count: algae; assay type: cell-based; settings: 1 mM inhibitor
Method: as §1, §2, §3, §4

diatoms and algae = test: Similar trials with other urea cycle pathway inhibitors in mixed environment of diatoms and algae; settings: no details given
diatoms [3] = test: Pond (natural habitat) trial with urea cycle pathway inhibitor, cellometer cell count: diatoms; set-up: species or system diatom; settings: 25 mM added to pond
Method: (§5) Another experiment was carried out in a natural habitat i.e. a pond consisting of a mixed environment of algae and diatoms. At Day 1 using a cellometer technique the cell counts of algae and diatoms was carried out.
(§6) A urea cycle pathway inhibitor, namely Tris 25 mM was added to the pond.
(§7) Periodic cell count readings were carried out for a span of two months. The diatom and the algal cell count were then determined using the cellometer technique at the end of the 2 month span.

algae [4] = test: Pond (natural habitat) trial with urea cycle pathway inhibitor, cellometer cell count: algae; settings: 25 mM added to pond, end of 2 month span; day 1 count 1000 cells/meter
Method: as §5, §6, §7

Compound: N[C@@H](CCCCN[C@@H](CCC(=O)O)C(=O)O)C(=O)O [Saccharopine]
- Day 4 (Cell Count) Inhibitor Diatom (diatoms [1]; after 4 days incubation, control 842, day 1 count 200): 62
- Diatom cell count reduction from day 1 (diatoms [1]; day 4): 69%
- Day 1 (Cell count) Inhibitor Diatom (diatoms [1]; initial count at day 1): 200
- Day 4 (Cell Count) Inhibitor Algae (algae [2]; after 4 days incubation, control 119, day 1 count 100): 450
- Day 1 (Cell count) Inhibitor Algae (algae [2]; initial count at day 1): 100
- Outcome of similar trials (diatom inhibition and algal growth) (diatoms and algae): equally successful results

Compound: NC(CO)(CO)CO [Tris]
- Diatom cell count of the pond reduced, as compared to the cell count of diatoms on Day 1 (diatoms [3]; 2 months): 71%
- Cell count at Day 60 Diatom (diatoms [3]; end of 2 month span, day 1 count 2000 cells/meter): 580 cells/meter
- Cell count at Day 60 Algae (algae [4]): 5300 cells/meter
- Outcome of similar trials (diatom inhibition and algal growth) (diatoms and algae): equally successful results

Compound: N [ammonia]
- Outcome of similar trials (diatom inhibition and algal growth) (diatoms and algae): equally successful results

Compound: O=S(=O)(O)CCN1CCN(CCO)CC1 [hepes]
- Outcome of similar trials (diatom inhibition and algal growth) (diatoms and algae): equally successful results

Compound: NCCCC[C@H](N)C(=O)O [lysine]
- Outcome of similar trials (diatom inhibition and algal growth) (diatoms and algae): equally successful results

Compound: CCCCCCCCCCCCCCCC(=O)SCCNC(=O)CCNC(=O)[C@H](O)C(C)(C)COP(=O)(O)OP(=O)(O)OC[C@H]1O[C@@H](n2cnc3c(N)ncnc32)[C@H](O)[C@@H]1OP(=O)(O)O [palmitoyl CoA]
- Outcome of similar trials (diatom inhibition and algal growth) (diatoms and algae): equally successful results

Compound: O=C([O-])c1ccccc1.[Na+] [sodium benzoate]
- Outcome of similar trials (diatom inhibition and algal growth) (diatoms and algae): equally successful results
